{"source": "patent US8618154B2", "about": "“LXR modulators” (Bristol-Myers Squibb Company, priority 2009, dated 2013)", "system": "ABCA1 gene expression", "assay": "Human whole blood assay (hWBA), ABCA1 mRNA induction", "type": "cell-based", "conditions": "Homo sapiens; full LXRα and LXRβ pan agonist used as reference; read-out: EC50 of reference compound", "method": "Human whole blood was collected in EDTA containing tubes and 0.5 mL aliquots were immediately mixed in a 96 well block with the appropriate serial dilution of test compound, in 0.5% DMSO. Compounds were incubated with blood at 37° C. with constant rocking for 4 hours. After incubation, cells were lysed in ABI Nucleic Acid Purification Lysis Solution (Applied Biosystems catalog #4305895) and frozen at −80° C. Following cell lysis, total RNA was purified using an ABI 6100 RNA prep station according to the protocol provided by the manufacturer. cDNAs were synthesized, and mRNAs were quantitated using SYBR-Green Quantitative PCR (Q-PCR) on an ABI Prism 7900HT Sequence Detection System and reagents from Quanta Bioscience Inc (Quanta Bioscience catalog #95047 and 95055).\nThe quantity of each mRNA was determined by the ΔΔCT method (Michael W. Pfaffl. A new mathematical model for relative quantification in real-time RT-PCR. Nucleic Acids Research, 2001, Vol. 29, No. 9 e45) and normalized to the quantity of two control mRNAs, i.e. ribosomal protein L-30 (L-30) and beta-2-microglobulin (B2M). The induction of ABCA1 and ABCG1 by test compound was graphed as a percent of the reference compound, 2-(4-(5-(5-cyano-1-(2,4-difluorobenzyl)-6-oxo-4-(trifluoromethyl)-1,6-dihydropyridin-2-yl)thiophen-2-yl)-3-methylphenyl)acetic acid, and potency (EC50) and activity (% MAX) were calculated by fitting a sigmoidal response curve as a function of log transformed compound concentration using XLFit software according to the equation y=A+((B−A)/(1+((C/x)^D))).", "data": [{"smiles": "Cc1cc(CC(=O)O)ccc1-c1ccc(-c2cc(C(F)(F)F)c(C#N)c(=O)n2Cc2ccc(F)cc2F)s1", "note": "[2-(4-(5-(5-cyano-1-(2,4-difluorobenzyl)-6-oxo-4-(trifluoromethyl)-1,6-dihydropyridin-2-yl)thiophen-2-yl)-3-methylphenyl)acetic acid, reference compound]", "values": [{"measurement": "EC50", "value": "1000 to 2000", "unit": "nM"}]}]}
